The record followed here is patent US5500344A, “Serine protease and uses thereof” (The United States of America as represented by the …, priority 1992, dated 1996).

Starred links: 1 amine or outer side, 2 acyl side, 3 side chain; linkers in the order of their positions; H or OH if unused. Non-standard residues stand in square brackets, D forms with d. Residues, ends and D or L forms follow the SMILES beside them. *: point of attachment. Suc = O=C(CCC(=O)[*:2])[*:1]; Nle = CCCC[C@H](N)C(=O)O; Boc = CC(C)(C)OC(=O)*; SBn = c1ccc(CS*)cc1

Assay [1] deals with T1, Met-ase (Rattus norvegicus, UniProt Q03238).
T1 construct: endogenous in cells; host or cells: rat RNK-16 LGL leukemia cells, cytolytic granules, HPLC fraction 104
T1 sequence (Q03238 21-258 limits assumed): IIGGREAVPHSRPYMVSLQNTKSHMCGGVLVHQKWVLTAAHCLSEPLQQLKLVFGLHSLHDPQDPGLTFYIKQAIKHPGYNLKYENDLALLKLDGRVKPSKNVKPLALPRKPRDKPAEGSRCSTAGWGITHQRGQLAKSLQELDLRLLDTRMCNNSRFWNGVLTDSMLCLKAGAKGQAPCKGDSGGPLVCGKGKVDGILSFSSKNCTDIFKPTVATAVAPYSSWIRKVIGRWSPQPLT
The assay is described as follows: Initial rates of peptide thiobenzyl ester substrate hydrolysis by HPLC-purified Met-ase (HPLC fraction 104). It is filed as biochemical. Conditions: [S] 100-133 μM, pH 7.5, 25° C. As to the method:
(§1) Briefly, 50 μl of sample was added to 100 μl of 1 mM DTNB, made up in 10 mM Hepes, 1 mM CaCl2, 1 mM MgCl2, pH7.2. The reaction was initiated by the addition of 50 μl of BLT (Sigma) to give a final concentration of 500 μM. For Metase determinations, 50 μl of dilutions of the sample in 0.1M Hepes, 0.05M CaCl2, pH7.5 were added to 100 μl of 1 mM DTNB and the reaction was initiated by the addition of 50 μl of Boc-Ala-Ala-Met-S Benzyl (Bzl) to give a final concentration of 150 μM. The duration of the assay depended on color development, the rate of which was measured (0.D410) on a Dynatech MR 5000 microplate reader. Controls of sample and DTNB alone or DTNB and substrate alone were run. For more sensitive comparisons of enzymatic activities, peptide thiobenzyl ester substrates were used to measure protease activities. The chymase substrate Suc-Phe-Leu-Phe-SBzl was purchased from BACHEM Bioscience Inc., Philadelphia, Pa. […] Boc-Ala-Ala-Asp-SBzl is the substrate for Asp-ase and peptide thiobenzyl esters containing Met, Leu or Nle are substrates for Met-ase SP. […] The initial rates were measured at 324 nm using a Beckman 35 spectrophotometer when 10-25 μl of an enzyme stock solution was added to a cuvette containing 2.0 ml of buffer, 150 μl of 4,4'-dithiodipyridine and 25 μl of substrate. The same volume of substrate and 4,4'-dithiodipyridine were added to the reference cell in order to compensate for the background hydrolysis rate of the substrates. Initial rates were measured in duplicate for each substrate concentration and were averaged in each case.
(§2) 10 μl of enzyme solution was added to […]

In assay [2] the target is T2, Tryptase (Rattus norvegicus, UniProt P49864).
T2 construct: The BLT-esteraseactivity was found in fractions 49 and 56; endogenous in cells; host or cells: rat RNK-16 NK/LGL leukemia cells, cytolytic granules, HPLC fraction 56
T2 sequence (P49864 26-258): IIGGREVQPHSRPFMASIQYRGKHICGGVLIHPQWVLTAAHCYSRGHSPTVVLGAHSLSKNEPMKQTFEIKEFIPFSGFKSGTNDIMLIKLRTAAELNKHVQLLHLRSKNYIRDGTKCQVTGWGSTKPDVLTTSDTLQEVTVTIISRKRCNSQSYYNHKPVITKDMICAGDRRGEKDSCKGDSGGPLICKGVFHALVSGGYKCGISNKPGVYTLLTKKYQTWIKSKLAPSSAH
Description: Initial rates of peptide thiobenzyl ester substrate hydrolysis by HPLC-purified Tryptase (HPLC fraction 56). It is filed as biochemical. Conditions: [S] 100-133 μM, pH 7.5, 25° C. As to the method: as §1, §2

The target in assay [3] is T3, Asp-ase (Rattus norvegicus, UniProt P18291).
T3 construct: Asp-ase purified by HPLC as previously described; endogenous in cells; host or cells: rat RNK LGL leukemia cells, cytolytic granules, HPLC-purified (Sayers et al. 1992)
T3 sequence (P18291 21-248): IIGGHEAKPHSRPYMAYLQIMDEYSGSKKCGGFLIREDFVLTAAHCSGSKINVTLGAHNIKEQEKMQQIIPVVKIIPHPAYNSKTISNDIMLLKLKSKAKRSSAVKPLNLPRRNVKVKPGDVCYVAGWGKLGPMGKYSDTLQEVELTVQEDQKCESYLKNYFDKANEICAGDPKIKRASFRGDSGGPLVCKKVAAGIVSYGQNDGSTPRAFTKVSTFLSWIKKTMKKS
The assay is described as follows: Initial rates of peptide thiobenzyl ester substrate hydrolysis by HPLC-purified Asp-ase. It is filed as biochemical. Conditions: [S] 100-133 μM, 0.1 M Hepes, 0.01 M CaCl2, pH 7.5, 8% Me2SO, 25° C. On the procedure: as §1, §2

The target in assay [4] is T4, Boc-Ala-Ala-Asp-SBzl.
T4 sequence (peptide, N-terminal Boc; C-terminal thiobenzyl ester (SBzl)): AAD

For assay [5], the target named is T5, Boc-Ala-Ala-Met-SBzl.
T5 sequence (peptide, N-terminal Boc; C-terminal thiobenzyl ester (SBzl)): AAM

Assay [6] addresses T6, Suc-Phe-Leu-Phe-SBzl.
T6 sequence (peptide, N-terminal Suc; C-terminal thiobenzyl ester (SBzl)): FLF

Assay [7] concerns the target T7, Boc-Ala-Ala-Ser-SBzl.
T7 sequence (peptide, N-terminal Boc; C-terminal thiobenzyl ester (SBzl)): AAS

[8] abbreviates: 25 μl enzyme solution (HPLC fraction 104).
The mark [9] stands for this setting: 10 μl enzyme solution (HPLC fraction 56).
Where [10] appears, read: 10 μl enzyme solution (HPLC fraction 104).

On to `CSCC[C@H](NC(=O)[C@H](C)NC(=O)[C@H](C)NC(=O)CCC(=O)O)C(=O)SCc1ccccc1` [Suc--Ala--Ala--Met--SBz1, Suc-Ala-Ala-Met-SBzl] (Suc-Ala-Ala-Met-SBn), for which, in assay [1] (setting [8]), the “Initial Rates, Met-ase” value was 10.1 nM/s.

In the case of `C[C@H](NC(=O)OC(C)(C)C)C(=O)N[C@@H](C)C(=O)N[C@@H](CC(=O)O)C(=O)SCc1ccccc1` [Boc--Ala--Ala--Asp--SBz1, Boc-Ala-Ala-Asp-SBzl] (Boc-Ala-Ala-Asp-SBn), in assay [2] (setting [9]), the “Initial Rates, Tryptase” value is 0 nM/s. Moreover, the “Initial Rates, Met-ase” value in assay [1] (setting [10]) stood at 0 nM/s. In addition, the results for the “Initial Rates, Asp-ase” value in assay [3] (10 μl enzyme solution) and in assay [3] (25 μl enzyme solution) were 12.6 nM/s and 44.6 nM/s, respectively.

`C[C@H](NC(=O)OC(C)(C)C)C(=O)N[C@@H](C)C(=O)N[C@@H](CO)C(=O)SCc1ccccc1` [Boc--Ala--Ala--Ser--SBz1] (Boc-Ala-Ala-Ser-SBn): the “Initial Rates, Tryptase” value in assay [2] (setting [9]) was found to be 0.4 nM/s. Further, the “Initial Rates, Met-ase” value in assay [1] (setting [10]) amounted to 0 nM/s. Moreover, the “Initial Rates, Asp-ase” value in assay [3] (10 μl enzyme solution) was found to be 1.3 nM/s; in assay [3] (25 μl enzyme solution), 6.7 nM/s.

In the case of `CC(C)C[C@H](NC(=O)[C@H](C)NC(=O)[C@H](C)NC(=O)OC(C)(C)C)C(=O)SCc1ccccc1` [Boc--Ala--Ala--Leu--SBz1] (Boc-Ala-Ala-Leu-SBn), the “Initial Rates, Met-ase” value in assay [1] (setting [10]) was 2.9 nM/s.

Regarding `CCCC[C@H](NC(=O)[C@H](C)NC(=O)[C@H](C)NC(=O)OC(C)(C)C)C(=O)SCc1ccccc1` [Boc--Ala--Ala--Nle--SBz1] (Boc-Ala-Ala-[Nle]-SBn), the “Initial Rates, Met-ase” value was 3.9 nM/s in assay [1] (setting [10]) and 15.2 nM/s in assay [1] (setting [8]).

With `CC(C)C[C@H](NC(=O)[C@H](Cc1ccccc1)NC(=O)CCC(=O)O)C(=O)N[C@@H](Cc1ccccc1)C(=O)SCc1ccccc1` [Suc--Phe--Leu--Phe--SBz1, Suc-Phe-Leu-Phe-SBzl] (Suc-Phe-Leu-Phe-SBn), the “Initial Rates, Tryptase” value in assay [2] (setting [9]) was 0 nM/s. For the same compound, in assay [1] (setting [10]), the “Initial Rates, Met-ase” value is given as 0 nM/s. In assay [3] (10 μl enzyme solution), the “Initial Rates, Asp-ase” value was found to be 0 nM/s.

Regarding `N=C(N)NCCC[C@H](NC(=O)OCc1ccccc1)C(=O)SCc1ccccc1` [Z--Arg--SBz1, Z-Arg-SBzl], the “Initial Rates, Tryptase” value worked out at 22.7 nM/s in assay [2] (setting [9]) and 93.4 nM/s in assay [2] (25 μl enzyme solution (HPLC fraction 56)). In addition, the “Initial Rates, Met-ase” value in assay [1] (setting [10]) came to 0 nM/s. The “Initial Rates, Asp-ase” value in assay [3] (10 μl enzyme solution) stood at 0 nM/s.

Turning to `CSCC[C@H](NC(=O)[C@H](C)NC(=O)[C@H](C)NC(=O)OC(C)(C)C)C(=O)SCc1ccccc1` [Boc--Ala--Ala--Met--SBz1, Boc-Ala-Ala-Met-S Benzyl (Bzl)] (Boc-Ala-Ala-Met-SBn), the “Initial Rates, Tryptase” value in assay [2] (setting [9]) came to 0 nM/s. Moreover, the “Initial Rates, Met-ase” value in assay [1] (setting [10]) came out at 4.2 nM/s; in assay [1] (setting [8]) it was 13.7 nM/s. The “Initial Rates, Asp-ase” value in assay [3] (10 μl enzyme solution) was found to be 0 nM/s.

Consider “Asp-ase (RNKP-1) (from UniProt P18291) (enzyme)”, for which the Initial Rates in assay [4] worked out at 12.6 nM/s; in assay [5] it was 0 nM/s; in assay [6] it was 0 nM/s; in assay [7] it was 1.3 nM/s.
